Measured values taken from patent EP4799701A2, “PYRIMID-2-YL-PYRAZOLE COMPOUNDS AS IRAK INHIBITORS” (Rigel Pharmaceuticals, Inc., priority 2022, dated 2023).
pEC50: −log10 of the molar value. Where “and” joins values, the source holds several entries; their conditions need not be identical. Equal entries are not always repeated. Structures can show the parent of a compound that is named as a salt.

Legend:
[1] = Rat brain homogenate binding, equilibrium dialysis (RED); assay type: in vitro ADME; details: two runs; brain homogenate 1 brain /3 buffer, drug 5 µM; 5 µM
Method: Brain and plasma drug binding were performed by equilibrium dialysis using the Rapid Equilibrium Dialysis (RED) device. Briefly, 300 µL of plasma or brain homogenate (1 brain /3 buffer) containing drug (5 µM) was equilibrated (4-18 h) against 500 µL of buffered saline. After incubation, the concentration of drug in plasma/brain homogenate and buffer was determined by LC-MS/MS.
Two runs of rat brain homogenate binding with I-1 compared to Comparison-1. I-1 is approximately 10-fold more free in rat brain than Comparison-1.

TLR4-induced IL-23 = experiment: LPS induced IL23p19 in THP-1 cells (IFNγ primed), IL-23p19 sandwich ELISA; assay type: cell-based, human; details: THP-1 cells primed with IFNγ, 1 µg/mL LPS, 18 hours; read-out: IL23-p19 ELISA, THP1-IFNy, LPS, 10pt EC50
Source text: LPS induced IL23p19 in THP-1 cells (with IFNy primed) Assay
THP-1 Cells (ATCC, Cat# TIB-202), Dimethyl Sulfoxide (DMSO) (Sigma-Aldrich, Cat# D2650), RPMI 1640 (Cellgro, Cat# 10-040-CM), Fetal Bovine Serum (Sigma, Cat# F4135), Albumin From Bovine Serum (BSA) (Sigma-Aldrich, Cat#A7906), LPS (Serotype K-235, Sigma, Product Number L 2143), IFNγ (Peprotech, Cat# 300-02), Capture antibody: Human IL-23p19 ELISA (e-Bioscience, Cat. # 14-7238-85), Detection antibody: Primary Mouse Biotinylated anti-human IL-12(p40/p70) (e-Bioscience, Cat. # 13-7129-85), Secondary HRP-conjugated Streptavidin (R&D Systems, Cat#DY998), 1x PBST Washing Buffer (PBS-Tween tablet) (VWR International, Cat#80058-558), ELISA Blocking Buffer (PBS with 1% BSA), ELISA Dilution Buffer (PBS with 1% BSA), 384 Well Flat-Bottom, MaxiSorp Black Immuno Plates (Thermo Scientific, Cat# 12-565-346), 384 Well Flat-Bottom, White Tissue Culture Plates (Thermo Scientific, Cat# 12-565-343), Super Signal ELISA Pico Chemiluminescent Substrate (Thermo Scientific, Cat#37070), Cell Titer Glo reagent (Promega, Cat#G7573), Positive control, IKK2VI inhibitor (Calbiochem, Cat#401483), AquaMax 4000 plate washer (Molecular Devices), Luminometer, Wallac Victor2 1420 Multilabel Counter.
On day 1, 50K/well THP-1 cells were seeded and primed with IFNγ (50ng/mL) in 384-well plates for about 18 hours in RPMI media with 10%FBS. On day 2, the compound was serially diluted in DMSO from 5 mM in 3-fold dilutions, and then diluted 1:125 in RPMI media with 10%FBS. […] IL-23p19 protein in 70 µL/well of supernatant was measured by sandwich ELISA, and 25 µl/well Cell Titer Glo reagent was added to the remaining cells to measure compound toxicity.
Maxisorp immuno ELISA plates were pre-coated with 25 µL/well of anti-IL-23p19 capture antibody (2.5ug/mL) in PBS overnight at room temperature. […] The plates were read with a luminometer, and the chemiluminescence values were entered into Athena (Rigel) for curve fitting, EC50 calculation, and database storage. […]

## CCO[C@H]1CC[C@H](n2cc(NC(=O)c3csc(-c4cn[nH]c4)n3)c(-c3nc(F)ccc3F)n2)CC1 [Comparison-1, reference compound]
[1]
  rat brain homogenate binding (free drug): 0.102% and 0.114%

## CCO[C@H]1CC[C@H](n2cc(NC(=O)c3csc(-c4cnn(COP(=O)(O)O)c4)n3)c(-c3ncccn3)n2)CC1 [Compound I-3, sodium (4-(4-((1-((1r,4r)-4-ethoxycyclohexyl)-3-(pyrimidin-2-yl)-1H-pyrazol-4-yl)carbamoyl)thiazol-2-yl)-1H-pyrazol-1-yl)methyl phosphate]
TLR4-induced IL-23
  pEC50: 7.26

## CCO[C@H]1CC[C@H](n2cc(NC(=O)c3csc(-c4cn[nH]c4)n3)c(-c3ncccn3)n2)CC1 [Compound I-4, N-(1-((1r,4r)-4-ethoxycyclohexyl)-3-(pyrimidin-2-yl)-1H-pyrazol-4-yl)-2-(1H-pyrazol-4-yl)thiazole-4-carboxamide tartaric acid salt]
TLR4-induced IL-23
  pEC50: 8.60
